Structures are written as SMILES.

For one assay, the system named is human PBMC. As to the kind of experiment: LPS-induced cytokine production in human PBMC. In kind it is cell-based. The settings on record: 2 or 5 μM, LPS 10 ng/ml, 10% FBS. On the procedure:
(§1) Human IL-6, IL18, IL1β, MCP-1, MMP-9, and mouse IL-6, IL18, TNFα, MCP-1 and IL-1β were measured with ELISA kits (R&D Systems) according to the manufacturer's instructions.
Heparinized human blood (25 ml) from a healthy donor was overlaid into a 50 ml conical tubes containing 20 ml Ficoll-Paque, and centrifuged for 20 min at 2000 rpm at room temperature and then allowed to stop without using the brake on the centrifuge. The upper layer was aspirated, leaving the mononuclear cell layer undisturbed at the interface. Cells were carefully transferred the to a new […] conical tube. The conical tube was filled with PBS, mixed and centrifuged at 1500 rpm for 15 minutes at room temperature. The supernatant was carefully and completely removed. The cell pellet was resupended in 50 ml of PBS and centrifuged at 1500 rpm for 5 minutes. This wash step was repeated once more. The cells were counted and resuspended cells at 1.7×10^6/ml in low-endotoxin RPMI1640/10% FBS.
Human PBMC (180 μl at 1.7×10^6/ml) were pipetted into each well of a 96-well plate. […] Cells were incubated at 37° C., under 5% CO2 for 1 hour, then 10 μl LPS (diluted in medium) were added per well to reach a final concentration of 10 ng/ml. Cells were cultured at 37° C., under 5% CO2. Supernatants were collected at 16 hours, 24 hours and 40 hours of LPS treatment, and IL-6 secretion was quantified.

The target of the next assay is farnesyltransferase (Homo sapiens, UniProt P49354+P49356). The settings on record: cited from earlier work.
A further assay relates to NF-κB. The settings on record: cited from earlier work.
Another assay concerns BALB/c mice. As to the kind of experiment: LPS-induced cytokine production in vivo (murine model of LPS-induced inflammation). The settings on record: Mus musculus; 50 mg/kg oral before LPS; 2 hours, first experiment; read-out: inhibition of MIP-1α production. The procedure: The experiments were performed on female BALB/c mice (6-7 week old; Charles River Laboratories, Inc. MA). […] The control mice received the vehicle (20% cyclodextran) only. 20 μg LPS (Sigma), diluted in PBS, was injected into each mouse intraperitoneally. Blood samples were collected either by eye bleeding or cardiac puncture at 1 and 2 hours after LPS injection in one experiment, and at 2 and 3 hours after LPS injection in a second experiment. Plasma samples were collected by centrifugation, and stored at ≦−20° C. before being tested for cytokines using individual ELISA kits or Luminex analysis (see below).
as §1
Samples were tested for cytokines using the Bio-plex cytokine assay kit (Bio-Rad Laboratories, Inc.) according to the manufacturer's instructions. Briefly, 50 μL anti-cytokine antibody conjugated beads were added to wells of a filter plate pre-equilibrated with assay buffer. The beads were washed, then 50 μL of undiluted cell culture supernatant or 4-fold diluted plasma samples were added and incubated for 2 hours. Biotinylated anti-cytokine antibody (25 μL) was added to each well and the plate was incubated with shaking for 1.5 hours. Streptavidin-PE (50 μL) was added to each well and the plate was incubated with shaking for 45 min. between incubations, wells were washed 3 times with 100 μL wash buffer and unbound analytes were filtered using a vacuum manifold. Following the last wash step, 125 μL of assay buffer was added to each well and the plate was placed on a shaker for 10 min. The plate was read on a Luminex^100 instrument (Luminex Corporation, Austin, Tex.) according to the manufacturer's instructions. The concentration of cytokine was determined from a standard curve assayed at the same time.

As to `Cn1cncc1C(N)(c1ccc(Cl)cc1)c1ccc2c(c1)c(-c1cccc(Cl)c1)cc(=O)n2C` (single isomer, unassigned) [less active enantiomer], in the assay on human PBMC, the “LPS-induced IL-6 production” value is given as “No difference in production”. Also, the “fold less active than tipifarnib (R115777) for inhibition of farnesyltransferase” value at farnesyltransferase is listed as “about 100 fold”.

Regarding `NC(=O)N1CCC(CC(=O)N2CCC([C@H]3c4ncc(Br)cc4CCc4cc(Cl)cc(Br)c43)CC2)CC1` [SCH 66336, (+)-(R)-4-[2-[4-(3,10-dibromo-8-chloro-5,6-dihydro-11H-benzo[5,6]cyclohepta[1,2-b]pyridin-11-yl)piperidin-1-yl]-2-oxoethyl]piperidine-1-carboxamide], the “TNF-α induced NF-κB activity” value with NF-κB was “inhibited”.

In the case of `CCC(C)(C)C(=O)O[C@H]1C[C@@H](C)C=C2C=C[C@H](C)[C@H](CC[C@@H]3C[C@@H](O)CC(=O)O3)[C@H]21` [simvastatin], the inhibition at 50 mg/kg in the assay on BALB/c mice is ~50%.
